What all share (type): cell-based
For one assay, the system named is M. gallisepticum BG44T. The experiment in a line: Mycoplasma susceptibility testing (MIC). The conditions noted are these: Mycoplasmoides gallisepticum. How it is done:
(§1) The MIC's in Table I and Table II were determined by standard agar-dilution assays or broth-dilution microtiter test.

The test system of the next assay is M. gallisepticum S6. The experiment in a line: Mycoplasma susceptibility testing (MIC). Particulars: Mycoplasmoides gallisepticum. Here is the method: as §1
In the next assay the test system is M. hyorinis BTS-7. The assay can be described thus: Mycoplasma susceptibility testing (MIC). How it is done:
as §1

Assay [1] concerns Staphylococcus aureus 29213 (QC strain). The experiment in a line: Antibacterial MIC, agar-dilution or broth-dilution microtiter test. The conditions noted are these: Strain H: Staphylococcus aureus 29213 (QC strain). How it is done:
as §1

Assay [2] concerns Streptococcus pneumoniae 2349. The assay is described as above. The conditions noted are these: Strain L: Streptococcus pneumoniae 2349. How it is done:
as §1

The subject of assay [3] is Klebsiella pneumoniae 3699. Described as above. Particulars: Strain K: Klebsiella pneumoniae 3699. Here is the method: as §1
A further assay deals with Pasteurella 8229. The assay is described as above. The conditions noted are these: Strain D: Pasteurella 8229. How it is done:
as §1

Assay [4] has as its system Escherichia coli 25922 (QC strain). Described as above. The conditions noted are these: Strain F: Escherichia coli 25922 (QC strain). Here is the method:
as §1

A further assay concerns Escherichia coli IN-F6-7. Described as above. Particulars: INF67; Strain E: Escherichia coli IN-F6-7. Here is the method: as §1
For assay [5], the system named is Staphylococcus aureus 5-1. The description is as above. The conditions noted are these: 51; Strain G: Staphylococcus aureus 5-1. How it is done: as §1
Another assay concerns salmonella LD4-8. The description is as above. The conditions noted are these: LD48; Strain I: salmonella LD4-8. How it is done:
as §1

The test system of a further assay is Pasteurella 8217. The assay is described as above. Particulars: Strain C: Pasteurella 8217. How it is done:
as §1

Assay [6] concerns Klebsiella pneumoniae 3753. The description is as above. The conditions noted are these: Strain J: Klebsiella pneumoniae 3753. Here is the method:
as §1

Assay [7] deals with Streptococcus pneumoniae 49619 (QC strain). The description is as above. Particulars: Strain M: Streptococcus pneumoniae 49619 (QC strain). How it is done:
as §1

Assay [8] relates to Actinobacillus pleuropneumoniae serotype 7. Described as above. The conditions noted are these: Strain B: Actinobacillus pleuropneumoniae serotype 7. Here is the method:
as §1

The test system of assay [9] is Actinobacillus pleuropneumoniae serotype 1. The assay is described as above. Particulars: Strain A: Actinobacillus pleuropneumoniae serotype 1. Here is the method: as §1

In brackets after ≈: the same amount, converted by molar mass. Some results are limits rather than exact numbers.

The MIC is the lowest concentration found to suppress growth. Low values mean a more susceptible organism, high ones a less susceptible organism. `CC[C@H]1OC(=O)C[C@@H](O)[C@H](C)[C@@H](O[C@@H]2O[C@H](C)[C@@H](O)[C@H](N(C)C)[C@H]2O)[C@@H](CCN2CCCCC2)C[C@@H](C)C(=O)/C=C/C(C)=C/[C@@H]1CN(CC)CC` [Compound 4a, (4R,5S,6S,7R,9R,11E,13E,15R,16R)-15-((diethylamino)methyl)-6-(((2R,3R,4S,5S,6R)-4-(dimethylamino)-3,5-dihydroxy-6-methyltetrahydro-2H-pyran-2-yl)oxy)-16-ethyl-4-hydroxy-5,9,13-trimethyl-7-(2-(piperidin-1-yl)ethyl)oxacyclohexadeca-11,13-diene-2,10-dione]: the MIC against M. gallisepticum BG44T was below 0.12 mg/L; in the assay with M. gallisepticum S6, below 0.12 mg/L; with M. hyorinis BTS-7, 62.5 mg/L (≈ 86.6 µM); in assay [1], 4 mg/L (≈ 5.54 µM); in assay [2], 0.5 mg/L (≈ 0.693 µM); in [3], above 256 mg/L. For the same compound, the MIC in the assay with Pasteurella 8229 is 0.5 mg/L (≈ 0.693 µM); in assay [4] it was 4 mg/L (≈ 5.54 µM); against Escherichia coli IN-F6-7 it was 8 mg/L (≈ 11.1 µM); in assay [5] it was above 256 mg/L; in the assay on salmonella LD4-8, 4 mg/L (≈ 5.54 µM); with Pasteurella 8217, 0.5 mg/L (≈ 0.693 µM). For the same compound, the minimal inhibitory concentration (MIC) in [6] turned out to be 32 mg/L (≈ 44.3 µM); in assay [7], 8 mg/L (≈ 11.1 µM); in assay [8], 32 mg/L (≈ 44.3 µM); in [9], 32 mg/L (≈ 44.3 µM).
Regarding `CCCN(CCC)C[C@H]1/C=C(C)/C=C/C(=O)[C@H](C)C[C@H](CCN2CCCCC2)[C@H](O[C@@H]2O[C@H](C)[C@@H](O)[C@H](N(C)C)[C@H]2O)[C@@H](C)[C@H](O)CC(=O)O[C@@H]1CC` [Compound 4b, (4R,5S,6S,7R,9R,11E,13E,15R,16R)-6-(((2R,3R,4S,5S,6R)-4-(dimethylamino)-3,5-dihydroxy-6-methyltetrahydro-2H-pyran-2-yl)oxy)-15-((dipropylamino)methyl)-16-ethyl-4-hydroxy-5,9,13-trimethyl-7-(2-(piperidin-1-yl)ethyl)oxacyclohexadeca-11,13-diene-2,10-dione], the MIC against M. gallisepticum BG44T is below 0.12 mg/L; with M. gallisepticum S6, 0.49 mg/L (≈ 0.653 µM); in the assay on M. hyorinis BTS-7, 15.6 mg/L (≈ 20.8 µM); in [1], 16 mg/L (≈ 21.3 µM); in assay [2], 1 mg/L (≈ 1.33 µM); in assay [3], above 256 mg/L. Also, the MIC against Pasteurella 8229 is 0.25 mg/L (≈ 0.333 µM); in assay [4] it was 4 mg/L (≈ 5.33 µM); with Escherichia coli IN-F6-7, 8 mg/L (≈ 10.7 µM); in [5], above 256 mg/L; against salmonella LD4-8 it was 8 mg/L (≈ 10.7 µM); with Pasteurella 8217 it was 1 mg/L (≈ 1.33 µM). Further, the minimum inhibitory concentration (MIC) amounted to 32 mg/L (≈ 42.7 µM) in assay [6], 16 mg/L (≈ 21.3 µM) in [7], 32 mg/L (≈ 42.7 µM) in assay [8] and 32 mg/L (≈ 42.7 µM) in assay [9].
With `CC[C@H]1OC(=O)C[C@@H](O)[C@H](C)[C@@H](O[C@@H]2O[C@H](C)[C@@H](O)[C@H](N(C)C)[C@H]2O)[C@@H](CCN2CCCCC2)C[C@@H](C)C(=O)/C=C/C(C)=C/[C@@H]1CN1CCCCC1` [Zuprevo, reference compound], the minimal inhibitory concentration (MIC) against M. gallisepticum BG44T was below 0.12 mg/L; with M. gallisepticum S6, below 0.12 mg/L; against M. hyorinis BTS-7 it was 1.95 mg/L (≈ 2.66 µM); in [1] it was 256 mg/L (≈ 349 µM); in assay [2], 0.5 mg/L (≈ 0.681 µM); in assay [3], above 256 mg/L. For the same compound, the minimum inhibitory concentration (MIC) is 1 mg/L (≈ 1.36 µM) with Pasteurella 8229; 4 mg/L (≈ 5.45 µM) in assay [4]; 4 mg/L (≈ 5.45 µM) against Escherichia coli IN-F6-7; above 256 mg/L in [5]; 8 mg/L (≈ 10.9 µM) against salmonella LD4-8; 1 mg/L (≈ 1.36 µM) in the assay on Pasteurella 8217. Also, the MIC in assay [6] was determined as 32 mg/L (≈ 43.6 µM); in assay [7] it was 256 mg/L (≈ 349 µM); in [8], 64 mg/L (≈ 87.2 µM); in assay [9], 64 mg/L (≈ 87.2 µM).

The values are drawn from US10287275B2, “16-member triamilide derivatives and uses thereof” (VICTOR PHARMA CO., LTD. ZHENJIANG, priority 2015, dated 2019).
